The source made the active and inactive calls. How the calls were made is not given here.

The data set has as its system CCRIS mutagenicity, Ames/micronucleus/aberration tests. Put plainly: CCRIS mutagenicity studies.
Setting [1] is: Test System: AMES SALMONELLA TYPHIMURIUM, Strain/Indicator: TA98, Metabolic Activation: NONE, Method: PREINCUBATION

In the case of `CCCCOC(=O)[C@@H](C)Oc1ccc(Oc2ccc(C#N)cc2F)cc1`, the mutagenic call (End Point: In vitro chromosomal aberrations, Test System: Chinese hamster lung (CHL) cells, Metabolic Activation: None) is “active; positive (ploidy)”; the mutagenic call (End Point: In vitro chromosomal aberrations, Test System: Chinese hamster lung (CHL) cells, Metabolic Activation: Rat, liver, S-9, Aroclor 1254) was “inactive; negative”; the mutagenic call (End Point: In vivo micronucleus, Test System: Bone marrow polychromatic erythgrocytes, Species: Mouse, Strain/Sex: ICR (Crj:CD-1)/ Female, Route: Oral (Gavage)) is “inactive; negative”; the mutagenic call (End Point: In vivo micronucleus, Test System: Bone marrow polychromatic erythgrocytes, Species: Mouse, Strain/Sex: ICR (Crj:CD-1)/ Male, Route: Oral (Gavage)) is “inactive; negative”; the mutagenic call (End Point: In vivo micronucleus, Test System: Bone marrow polychromatic erythrocytes, Species: Mouse, Strain/Sex: ICR (Crj:CD-1)/ Female, Route: Oral (Gavage)) is “inactive; negative”; the mutagenic call (End Point: In vivo micronucleus, Test System: Bone marrow polychromatic erythrocytes, Species: Mouse, Strain/Sex: ICR (Crj:CD-1)/ Male, Route: Oral (Gavage)) is “inactive; negative”. For the same compound, the mutagenic call by setting is: (Test System: Ames Salmonella typhimurium, Strain/Indicator: TA98, Metabolic Activation: None, Method: Plate incorporation) “inactive; negative”; (Test System: Ames Salmonella typhimurium, Strain/Indicator: TA98, Metabolic Activation: Rat, liver, S-9, Aroclor-1254, Method: Plate incorporation) “inactive; negative”; (Test System: Ames Salmonella typhimurium, Strain/Indicator: TA100, Metabolic Activation: None, Method: Plate incorporation) “inactive; negative”; (Test System: Ames Salmonella typhimurium, Strain/Indicator: TA100, Metabolic Activation: Rat, liver, S-9, Aroclor-1254, Method: Plate incorporation) “inactive; negative”; (Test System: Ames Salmonella typhimurium, Strain/Indicator: TA1535, Metabolic Activation: None, Method: Plate incorporation) “inactive; negative”; (Test System: Ames Salmonella typhimurium, Strain/Indicator: TA1535, Metabolic Activation: Rat, liver, S-9, Aroclor-1254, Method: Plate incorporation) “inactive; negative”. Moreover, the mutagenic call (Test System: Ames Salmonella typhimurium, Strain/Indicator: TA1537, Metabolic Activation: None, Method: Plate incorporation) is “inactive; negative”; the mutagenic call (Test System: Ames Salmonella typhimurium, Strain/Indicator: TA1537, Metabolic Activation: Rat, liver, S-9, Aroclor-1254, Method: Plate incorporation) is “inactive; negative”; the mutagenic call (Test System: E. coli, Strain/Indicator: WP2 uvrA, Metabolic Activation: None, Method: Standard plate) was “inactive; negative”; the mutagenic call (Test System: E. coli, Strain/Indicator: WP2 uvrA, Metabolic Activation: Rat, liver, S-9, Aroclor-1254, Method: Standard plate) is “inactive; negative”; the mutagenic call (Test System: Mouse lymphoma, Strain/Indicator: L5178Y cells (TK+/TK-), Metabolic Activation: None, Method: Suspension/plate) is “inactive; negative”; the mutagenic call (Test System: Mouse lymphoma, Strain/Indicator: L5178Y cells (TK+/TK-), Metabolic Activation: Rat, liver, S-9, Aroclor-1254, Method: Suspension/plate) is “inactive; negative”.

Regarding `CC(=O)Nc1ccc(N=Nc2ccc(N(C)C)cc2)cc1`, the mutagenic call by setting is: (Test System: AMES SALMONELLA TYPHIMURIUM, Strain/Indicator: TA98, Metabolic Activation: RAT, LIVER, S-9, POLYCHLORINATED BIPHENYLS, Method: PREINCUBATION) “active; positive”; (Test System: AMES SALMONELLA TYPHIMURIUM, Strain/Indicator: TA100, Metabolic Activation: RAT, LIVER, S-9, POLYCHLORINATED BIPHENYLS, Method: PREINCUBATION) “inactive; negative”.

In the case of `Cc1ccc2cccc([N+](=O)[O-])c2c1`, the mutagenic call under setting [1] was “active; positive”.

`c1ccc(CNc2ncnc3nc[nH]c23)cc1`: the mutagenic call (Test System: AMES SALMONELLA TYPHIMURIUM, Strain/Indicator: TA98, Metabolic Activation: NONE, Method: STANDARD PLATE) was “inactive; negative”; the mutagenic call (Test System: AMES SALMONELLA TYPHIMURIUM, Strain/Indicator: TA98, Metabolic Activation: RAT LIVER S-9, 3-METHYLCHOLANTHRENE AND PHENOBARBITAL, Method: STANDARD PLATE) is “inactive; negative”; the mutagenic call (Test System: AMES SALMONELLA TYPHIMURIUM, Strain/Indicator: TA98, Metabolic Activation: RAT, LIVER, S-9, AROCLOR, Method: STANDARD PLATE) is “inactive; negative”; the mutagenic call (Test System: AMES SALMONELLA TYPHIMURIUM, Strain/Indicator: TA100, Metabolic Activation: NONE, Method: STANDARD PLATE) is “inactive; negative”; the mutagenic call (Test System: AMES SALMONELLA TYPHIMURIUM, Strain/Indicator: TA100, Metabolic Activation: RAT LIVER S-9, 3-METHYLCHOLANTHRENE AND PHENOBARBITAL, Method: STANDARD PLATE) was “inactive; negative”; the mutagenic call (Test System: AMES SALMONELLA TYPHIMURIUM, Strain/Indicator: TA100, Metabolic Activation: RAT, LIVER, S-9, AROCLOR, Method: STANDARD PLATE) was “inactive; negative”. Moreover, the mutagenic call (Test System: CHINESE HAMSTER V-79, Strain/Indicator: V-79/6-THIOGUANINE (HGPRT), Metabolic Activation: NONE, Method: STANDARD PLATE) is “inactive; negative”.

On to `N/C(=N\O)c1ccccc1`, for which the mutagenic call by setting is: (Test System: AMES SALMONELLA TYPHIMURIUM, Strain/Indicator: TA98, Metabolic Activation: CO631 CELLS, Method: PREINCUBATION) “inactive; negative”; under setting [1], “inactive; negative”; (Test System: AMES SALMONELLA TYPHIMURIUM, Strain/Indicator: TA98, Metabolic Activation: RABBIT, LIVER, S-9, Method: PREINCUBATION) “active; positive”; (Test System: AMES SALMONELLA TYPHIMURIUM, Strain/Indicator: TA98, Metabolic Activation: RAT HEPATOCYTES, Method: PREINCUBATION) “inactive; negative”; (Test System: AMES SALMONELLA TYPHIMURIUM, Strain/Indicator: TA98, Metabolic Activation: RAT, LIVER, S-9, AROCLOR 1254, ATP, Method: PREINCUBATION) “inactive; negative”; (Test System: AMES SALMONELLA TYPHIMURIUM, Strain/Indicator: TA98, Metabolic Activation: RAT, LIVER, S-9, AROCLOR 1254, Method: PREINCUBATION) “inactive; negative”. The mutagenic call is “inactive; negative” (Test System: AMES SALMONELLA TYPHIMURIUM, Strain/Indicator: TA100, Metabolic Activation: RABBIT, LIVER, S-9, Method: PREINCUBATION); “inactive; negative” (Test System: AMES SALMONELLA TYPHIMURIUM, Strain/Indicator: TA100, Metabolic Activation: RAT HEPATOCYTES, Method: PREINCUBATION); “inactive; negative” (Test System: AMES SALMONELLA TYPHIMURIUM, Strain/Indicator: TA100, Metabolic Activation: RAT, LIVER, S-9, AROCLOR 1254, ATP, Method: PREINCUBATION); “inactive; negative” (Test System: AMES SALMONELLA TYPHIMURIUM, Strain/Indicator: TA100, Metabolic Activation: RAT, LIVER, S-9, AROCLOR 1254, Method: PREINCUBATION).
